Test results from article doi:10.1101/2024.12.09.627564, “Cannabinoid inhibition of mechanosensitive K^+ channels” (bioRxiv, 2024).
Substitutions are numbered along the chain they refer to. Where two headings read alike, the source gives them in different places.

Assays:
Type in all cases: biochemical
Homo sapiens TRAAK = molecular target: T1, Homo sapiens TRAAK (Homo sapiens, UniProt Q9NYG8); assay: Excised inside-out patch recording of TRAAK from Xenopus oocytes; conditions: for inhibition at 1 µM: 1 μM CBD, read-out: percent inhibition
T1 construct: The transcribed messages encode H. sapiens TRAAK amino acids 1–393; expressed in transfected cells; host or cells: Xenopus laevis oocytes, cRNA injection
T1 sequence (Q9NYG8 1-393): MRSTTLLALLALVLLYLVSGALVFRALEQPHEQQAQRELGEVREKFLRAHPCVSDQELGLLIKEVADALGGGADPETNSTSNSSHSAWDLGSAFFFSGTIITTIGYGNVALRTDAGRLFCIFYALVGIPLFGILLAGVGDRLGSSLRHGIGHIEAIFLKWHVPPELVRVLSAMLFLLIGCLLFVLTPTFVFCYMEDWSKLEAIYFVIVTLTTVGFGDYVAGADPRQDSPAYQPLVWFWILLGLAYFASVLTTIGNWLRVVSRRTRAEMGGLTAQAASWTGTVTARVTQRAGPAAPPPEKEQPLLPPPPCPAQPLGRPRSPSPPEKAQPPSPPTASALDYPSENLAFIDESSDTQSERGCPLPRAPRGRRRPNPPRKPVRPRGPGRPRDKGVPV
Text: For patch clamp recording from Xenopus oocytes, genes encoding full-length Homo sapiens TRAAK (UniProt Q9NYG8–2), TREK-1 (UniProt O95069), and TREK-2 (UniProt P57789) were codon optimized for eukaryotic expression, synthesized (Genewiz), and cloned into a modified pGEMHE vector using Xho1 and EcoR1 restriction sites. The transcribed messages encode H. sapiens TRAAK amino acids 1–393, TREK-1 amino acids 1–426, or TREK-2 amino acids 1–538 with an additional three amino acids (SNS) at the C terminus. TRAAK mutants were introduced by polymerase chain reaction (PCR). Linearized DNA was transcribed in vitro using T7 polymerase. Complementary RNA (0.1 to 10 ng for TRAAK, TREK-1, TREK-2, and mutants) in 50 nL H2O was injected into Xenopus laevis oocytes extracted from anesthetized frogs. Currents were recorded at 25 °C from inside-out patches excised from oocytes 1 to 5 d after RNA injection. The pipette solution contained 15 mM KCl, 135 mM NaCl, 2 mM MgCl2, and 10 mM HEPES (pH = 7.4 with KOH) and the bath solution contained 150 mM KCl and 10 mM HEPES (pH = 7.1 with KOH). Borosilicate glass pipettes were pulled to 2–5 MΩ resistance.
Patches were evaluated with voltage-step protocols to confirm TRAAK expression and minimal non-specific leak based on reversal potential. Currents were recorded using an Axopatch 200B amplifier (Molecular Devices) at a bandwidth of 1 kHz and digitized with an Digidata 1550B (Molecular Devices) at 100–500 kHz using pClamp10.7 software. Pressure was applied with a second-generation high-speed pressure clamp device (HSPC-2-SB, ALA Scientific Instruments). Aggregated data were from patches from n ≥ 2 different cells on different days. No relevant differences were observed between patches from different cells. In an effort to minimize variability associated with differences in resting membrane tension, we targeted patches with low basal curvature and low resting channel activity and ensured measured pressure difference across the patch was as close to zero as possible at rest to prevent mechanical activation of channels. Data were analyzed using Clampfit 10.7, Excel, and Graphpad Prism software. For voltage families, the data were decimated 100x and plotted in Prism. Statistical analysis was conducted with Dunnett’s multiple comparisons test after an ordinary one-way ANOVA using Prism software.
To avoid cannabinoid absorption to plastic, cannabinoid solutions were made in glass vials and diluted by weight, perfusion was performed using glass tubing pulled from borosilicate glass Pasteur pipettes (Fisherbrand, Cat# 13–678-20C), and recordings were performed in glass chambers. Channel activity was continuously recorded during perfusion steps. Patches were exposed to each cannabinoid concentration until a stable current level was reached (0.5–2 minutes). CBD (Cayman Chemical cat#90080) was prepared as a 10mM stock solution in DMSO, CBN (Cayman Chemical cat#25495) was prepared as a 80mM stock solution in DMSO, CBDV (Phytolab Cat#85955) was prepared as a 10mM stock solution in DMSO, and CBDP (Cayman Chemical cat#33611) was purchased as a 2.9 mM stock solution in methanol. Cannabinoids were serially diluted in bath solution to achieve working concentrations of 50 μM to 10 nM. Bath volume in the recording chamber was minimized by suction and drug-containing solutions were delivered three times to ensure establishment of desired concentration in the recording chamber. Cannabinoids were applied from low to high concentration. The recording chamber and perfusion system were washed extensively with methanol after every trial.
The effects of cannabinoids on channel activity were quantified by the reduction in channel current evoked at 0 mV during a gap-free recording or during 200 ms long voltage families with steps ranging from −100 to +100 mV. Currents were normalized to those prior to cannabinoid application to facilitate comparisons across different patches and cells. […]

TRAAKP259L = molecular target: T2, TRAAKP259L (Homo sapiens, UniProt Q9NYG8, P233L); assay: Excised patch recording of TRAAK mutant P259L
T2 construct: The transcribed messages encode H. sapiens TRAAK amino acids 1–393; expressed in transfected cells; host or cells: Xenopus laevis oocytes, cRNA injection
T2 sequence (Q9NYG8 1-393 P233L): T1 sequence (Q9NYG8 1-393) with P233L
Text: (§1) For patch clamp recording from Xenopus oocytes, genes encoding full-length Homo sapiens TRAAK (UniProt Q9NYG8–2), TREK-1 (UniProt O95069), and TREK-2 (UniProt P57789) were codon optimized for eukaryotic expression, synthesized (Genewiz), and cloned into a modified pGEMHE vector using Xho1 and EcoR1 restriction sites. The transcribed messages encode H. sapiens TRAAK amino acids 1–393, TREK-1 amino acids 1–426, or TREK-2 amino acids 1–538 with an additional three amino acids (SNS) at the C terminus. TRAAK mutants were introduced by polymerase chain reaction (PCR). Linearized DNA was transcribed in vitro using T7 polymerase. […] Currents were recorded at 25 °C from inside-out patches excised from oocytes 1 to 5 d after RNA injection. […]
(§2) Patches were evaluated with voltage-step protocols to confirm TRAAK expression and minimal non-specific leak based on reversal potential. Currents were recorded using an Axopatch 200B amplifier (Molecular Devices) at a bandwidth of 1 kHz and digitized with an Digidata 1550B (Molecular Devices) at 100–500 kHz using pClamp10.7 software. […] In an effort to minimize variability associated with differences in resting membrane tension, we targeted patches with low basal curvature and low resting channel activity and ensured measured pressure difference across the patch was as close to zero as possible at rest to prevent mechanical activation of channels. […]

TRAAKG165R = molecular target: T3, TRAAKG165R (Homo sapiens, UniProt Q9NYG8, G139R); assay: Excised patch recording of TRAAK mutant G165R
T3 construct: The transcribed messages encode H. sapiens TRAAK amino acids 1–393; expressed in transfected cells; host or cells: Xenopus laevis oocytes, cRNA injection
T3 sequence (Q9NYG8 1-393 G139R): T1 sequence (Q9NYG8 1-393) with G139R
Text: as §1, §2

## C=C(C)[C@@H]1CCC(C)=C[C@H]1c1c(O)cc(CCCCC)cc1O [CBD, Cannabidiol]
Homo sapiens TRAAK
  IC50: ~145 nM
Homo sapiens TRAAK; after mβCD treatment (high membrane tension)
  inhibition at 1 µM: 43 ± 13%
Homo sapiens TRAAK; prior to mβCD treatment
  inhibition at 1 µM: 91 ± 3%
Homo sapiens TRAAK; 0.5, 1 and 10 μM CBD
  effect on mechanical activation of TRAAK by negative pressure steps: more negative pressure was required to activate TRAAK to the same degree
Homo sapiens TRAAK; TRAAK dose-response
  Hill-coefficient: 1.3
Homo sapiens TRAAK; TRAAK inhibitors
  fold higher affinity than RU-TRAAK-1 and −2: 3–5 fold
Homo sapiens TRAAK; TRAAK, excised patches
  concentration at which effects are evident: 1 to 10 nM
  concentration of full inhibition: ~ 1 μM
Homo sapiens TRAAK; after vs prior to mβCD treatment
  fold higher concentration required for similar inhibition after mβCD treatment: Approximately 10 fold
Homo sapiens TRAAK; nonspecific TRAAK inhibitors
  fold higher affinity than ruthenium red and TKDC: greater than 10 fold
TRAAKP259L
  IC50: 156 ± 8 nM
TRAAKG165R
  IC50: 356 ± 18 nM
